Columns and labels:
blackgrass = test: Test B pre/postemergence blackgrass; format: in vivo, Alopecurus myosuroides; details: for Blackgrass plant response rating (0 to 10 scale): 0 is no effect
In short: (§1)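 Response is a visual 0-to-10 score relative to untreated plants, where 0 means no effect and 10 means complete control, taken twelve to sixteen days after application. Treatments went onto soil at planting and onto foliage of 1- to 4-leaf plants, using a surfactant-containing non-phytotoxic solvent.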

soybean = test: Test B pre/postemergence soybean; format: in vivo, Glycine max; details: for Soybean plant response rating (0 to 10 scale): 0 is no effect
In short: as §1

bedstraw = test: Test B pre/postemergence bedstraw; format: in vivo, Galium aparine; details: for Bedstraw plant response rating (0 to 10 scale): 0 is no effect
In short: as §1

corn = test: Test B pre/postemergence corn; format: in vivo, Zea mays; details: for Corn plant response rating (0 to 10 scale): 0 is no effect
In short: as §1

sugar beet = test: Test B pre/postemergence sugar beet; format: in vivo, Beta vulgaris; details: for Sugarbeets plant response rating (0 to 10 scale): 0 is no effect
In short: as §1

crabgrass = test: Test B pre/postemergence crabgrass; format: in vivo, Digitaria sanguinalis
In short: as §1

surinam grass = test: Test B pre/postemergence surinam grass; format: in vivo, Brachiaria decumbens; details: for B. signalgrass plant response rating (0 to 10 scale): 0 is no effect
In short: as §1

wheat = test: Test B pre/postemergence wheat; format: in vivo, Triticum aestivum; details: for Wheat plant response rating (0 to 10 scale): Rate 125 g/ha, 0 is no effect
In short: as §1

wild oat = test: Test B pre/postemergence wild oat; format: in vivo, Avena fatua; details: for Wild oats plant response rating (0 to 10 scale): Rate 125 g/ha, 0 is no effect
In short: as §1

purple nutsedge = test: Test B pre/postemergence purple nutsedge; format: in vivo, Cyperus rotundus; details: for Nutsedge plant response rating (0 to 10 scale): 0 is no effect
In short: as §1

pigweed = test: Test B pre/postemergence pigweed; format: in vivo, Amaranthus retroflexus
In short: as §1

velvetleaf = test: Test B pre/postemergence velvetleaf; format: in vivo, Abutilon theophrasti; details: for Velvetleaf plant response rating (0 to 10 scale): Rate 125 g/ha, 0 is no effect
In short: as §1

rape = test: Test B pre/postemergence rape; format: in vivo, Brassica napus; details: for Rape plant response rating (0 to 10 scale): 0 is no effect
In short: as §1

[1] = Postemergence, Rate 125 g/ha, scale of 0 to 10 where 0 is no effect and 10 is complete control
[2] = Preemergence, Rate 62 g/ha, scale of 0 to 10 where 0 is no effect and 10 is complete control
[3] = Preemergence, Rate 125 g/ha, 10 is complete control
[4] = Preemergence, Rate 250 g/ha, scale 0 to 10, 0 is no effect, 10 is complete control
[5] = Preemergence, Rate 500 g/ha, scale 0 to 10 (0 no effect, 10 complete control)
[6] = Rate 62 g/ha, Postemergence, scale of 0 to 10 where 0 is no effect and 10 is complete control
[7] = Rate 250 g/ha, Postemergence, scale 0 to 10, 0 is no effect, 10 is complete control
[8] = Rate 500 g/ha, Postemergence, scale 0 to 10
[9] = Rate 500 g/ha, Postemergence, scale 0 to 10, 0 no effect, 10 complete control
[10] = Preemergence, 10 is complete control
[11] = Preemergence, Rate 125 g/ha, 0 is no effect, 10 is complete control

Structure (SMILES): CC(C)N(C(=O)n1oc(=O)n(CC(F)(F)F)c1=O)c1ccc(F)cc1 [Compound 163]
- Blackgrass plant response rating (blackgrass; [1]): 4
- Blackgrass plant response rating (blackgrass; [2]): 7
- Blackgrass plant response rating (0 to 10 scale) (blackgrass; [3]): 7
- Blackgrass plant response rating (blackgrass; [4]): 10
- Blackgrass plant response rating (blackgrass; [5]): 10
- Blackgrass plant response rating (blackgrass; [6]): 2
- Plant response rating, Blackgrass (blackgrass; [7]): 6
- Blackgrass plant response rating (blackgrass; [8]): 8
- Soybean plant response rating (soybean; [1]): 2
- Soybean plant response rating (soybean; [2]): 0
- Soybean plant response rating (0 to 10 scale) (soybean; [3]): 0
- Soybean plant response rating (soybean; [4]): 0
- Soybean plant response rating (soybean; [5]): 0
- Soybean plant response rating (soybean; [6]): 2
- Plant response rating, Soybean (soybean; [7]): 3
- Soybean plant response rating (soybean; [8]): 3
- Bedstraw plant response rating (bedstraw; [1]): 4
- Bedstraw plant response rating (bedstraw; [2]): 0
- Bedstraw plant response rating (0 to 10 scale) (bedstraw; [3]): 0
- Bedstraw plant response rating (bedstraw; [4]): 4
- Bedstraw plant response rating (bedstraw; [5]): 4
- Bedstraw plant response rating (bedstraw; [6]): 0
- Plant response rating, Bedstraw (bedstraw; [7]): 7
- Bedstraw plant response rating (bedstraw; [8]): 9
- Corn plant response rating (corn; [1]): 0
- Corn plant response rating (corn; [2]): 0
- Corn plant response rating (0 to 10 scale) (corn; [3]): 0
- Corn plant response rating (corn; [4]): 0
- Corn plant response rating (corn; [5]): 2
- Corn plant response rating (corn; [6]): 0
- Plant response rating, Corn (corn; [7]): 0
- Corn plant response rating (corn; [8]): 0
- Sugarbeets plant response rating (sugar beet; [1]): 0
- Sugarbeets plant response rating (sugar beet; [2]): 0
- Sugarbeets plant response rating (0 to 10 scale) (sugar beet; [3]): 3
- Sugarbeets plant response rating (sugar beet; [4]): 4
- Sugarbeets plant response rating (sugar beet; [5]): 6
- Sugarbeets plant response rating (sugar beet; [6]): 0
- Plant response rating, Sugarbeets (sugar beet; [7]): 4
- Sugarbeets plant response rating (sugar beet; [8]): 5
- Crabgrass plant response rating (crabgrass; [1]): 7
- Crabgrass plant response rating (crabgrass; [2]): 8
- Crabgrass plant response rating (crabgrass; [4]): 8
- Crabgrass plant response rating (crabgrass; [5]): 9
- Crabgrass plant response rating (crabgrass; [6]): 6
- Plant response rating, Crabgrass (crabgrass; [7]): 8
- Crabgrass plant response rating (crabgrass; [8]): 9
- B. signalgrass plant response rating (surinam grass; [1]): 2
- B. signalgrass plant response rating (surinam grass; [2]): 0
- B. signalgrass plant response rating (0 to 10 scale) (surinam grass; [3]): 2
- B. signalgrass plant response rating (surinam grass; [4]): 2
- B. signalgrass plant response rating (surinam grass; [5]): 2
- B. signalgrass plant response rating (surinam grass; [6]): 0
- Plant response rating, B. signalgrass (surinam grass; [7]): 5
- B. signalgrass plant response rating (surinam grass; [9]): 6
- Wheat plant response rating (wheat; [2]): 0
- Wheat plant response rating (0 to 10 scale) (wheat; [10]): 2
- Wheat plant response rating (wheat; [4]): 2
- Wheat plant response rating (wheat; [5]): 4
- Plant response rating, Wheat (wheat; [7]): 2
- Wheat plant response rating (wheat; [8]): 5
- Wild oats plant response rating (wild oat; [2]): 3
- Wild oats plant response rating (0 to 10 scale) (wild oat; [10]): 3
- Wild oats plant response rating (wild oat; [4]): 7
- Wild oats plant response rating (wild oat; [5]): 10
- Plant response rating, Wild oats (wild oat; [7]): 3
- Wild oats plant response rating (wild oat; [8]): 3
- Nutsedge plant response rating (purple nutsedge; [1]): 0
- Nutsedge plant response rating (purple nutsedge; [2]): 0
- Nutsedge plant response rating (0 to 10 scale) (purple nutsedge; [3]): 0
- Nutsedge plant response rating (purple nutsedge; [4]): 0
- Nutsedge plant response rating (purple nutsedge; [5]): 0
- Nutsedge plant response rating (purple nutsedge; [6]): 0
- Plant response rating, Nutsedge (purple nutsedge; [7]): 0
- Nutsedge plant response rating (purple nutsedge; [8]): 3
- Redroot pigweed plant response rating (pigweed; [1]): 2
- Redroot pigweed plant response rating (pigweed; [4]): 6
- Redroot pigweed plant response rating (pigweed; [5]): 9
- Redroot pigweed plant response rating (pigweed; [6]): 0
- Plant response rating, Redroot pigweed (pigweed; [7]): 3
- Redroot pigweed plant response rating (pigweed; [8]): 3
- Velvetleaf plant response rating (velvetleaf; [2]): 0
- Velvetleaf plant response rating (0 to 10 scale) (velvetleaf; [10]): 2
- Velvetleaf plant response rating (velvetleaf; [4]): 5
- Velvetleaf plant response rating (velvetleaf; [5]): 5
- Plant response rating, Velvetleaf (velvetleaf; [7]): 6
- Velvetleaf plant response rating (velvetleaf; [8]): 6
- Rape plant response rating (rape; [1]): 0
- Rape plant response rating (rape; [2]): 0
- Rape plant response rating (0 to 10 scale) (rape; [3]): 0
- Rape plant response rating (rape; [4]): 7
- Rape plant response rating (rape; [5]): 8
- Rape plant response rating (rape; [6]): 0
- Plant response rating, Rape (rape; [7]): 2
- Rape plant response rating (rape; [8]): 4

Structure (SMILES): CC1CCCCC1n1c(=O)on(C(=O)N(c2ccc(F)cc2F)C(C)C)c1=O (stereo not drawn) [Compound 172]
- Blackgrass plant response rating (blackgrass; [1]): 0
- Blackgrass plant response rating (blackgrass; [2]): 0
- Blackgrass plant response rating (0 to 10 scale) (blackgrass; [3]): 0
- Blackgrass plant response rating (blackgrass; [4]): 3
- Blackgrass plant response rating (blackgrass; [5]): 3
- Blackgrass plant response rating (blackgrass; [6]): 0
- Plant response rating, Blackgrass (blackgrass; [7]): 5
- Blackgrass plant response rating (blackgrass; [8]): 5
- Soybean plant response rating (soybean; [1]): 3
- Soybean plant response rating (soybean; [2]): 0
- Soybean plant response rating (0 to 10 scale) (soybean; [3]): 0
- Soybean plant response rating (soybean; [4]): 0
- Soybean plant response rating (soybean; [5]): 0
- Soybean plant response rating (soybean; [6]): 2
- Plant response rating, Soybean (soybean; [7]): 3
- Soybean plant response rating (soybean; [8]): 5
- Bedstraw plant response rating (bedstraw; [1]): 0
- Bedstraw plant response rating (bedstraw; [2]): 0
- Bedstraw plant response rating (0 to 10 scale) (bedstraw; [3]): 0
- Bedstraw plant response rating (bedstraw; [4]): 3
- Bedstraw plant response rating (bedstraw; [5]): 5
- Bedstraw plant response rating (bedstraw; [6]): 0
- Plant response rating, Bedstraw (bedstraw; [7]): 8
- Corn plant response rating (corn; [1]): 0
- Corn plant response rating (corn; [2]): 0
- Corn plant response rating (0 to 10 scale) (corn; [3]): 0
- Corn plant response rating (corn; [4]): 0
- Corn plant response rating (corn; [5]): 0
- Corn plant response rating (corn; [6]): 0
- Plant response rating, Corn (corn; [7]): 0
- Corn plant response rating (corn; [8]): 0
- Sugarbeets plant response rating (sugar beet; [1]): 0
- Sugarbeets plant response rating (sugar beet; [2]): 0
- Sugarbeets plant response rating (0 to 10 scale) (sugar beet; [3]): 2
- Sugarbeets plant response rating (sugar beet; [4]): 5
- Sugarbeets plant response rating (sugar beet; [5]): 5
- Sugarbeets plant response rating (sugar beet; [6]): 0
- Plant response rating, Sugarbeets (sugar beet; [7]): 0
- Sugarbeets plant response rating (sugar beet; [8]): 0
- Crabgrass plant response rating (crabgrass; [1]): 3
- Crabgrass plant response rating (crabgrass; [2]): 7
- Crabgrass plant response rating (0 to 10 scale) (crabgrass; [11]): 8
- Crabgrass plant response rating (crabgrass; [4]): 10
- Crabgrass plant response rating (crabgrass; [5]): 10
- Crabgrass plant response rating (crabgrass; [6]): 0
- Plant response rating, Crabgrass (crabgrass; [7]): 9
- Crabgrass plant response rating (crabgrass; [8]): 9
- B. signalgrass plant response rating (surinam grass; [1]): 0
- B. signalgrass plant response rating (surinam grass; [2]): 2
- B. signalgrass plant response rating (0 to 10 scale) (surinam grass; [3]): 5
- B. signalgrass plant response rating (surinam grass; [4]): 5
- B. signalgrass plant response rating (surinam grass; [5]): 8
- B. signalgrass plant response rating (surinam grass; [6]): 0
- Plant response rating, B. signalgrass (surinam grass; [7]): 0
- B. signalgrass plant response rating (surinam grass; [9]): 0
- Wheat plant response rating (wheat; [2]): 0
- Wheat plant response rating (0 to 10 scale) (wheat; [10]): 0
- Wheat plant response rating (wheat; [4]): 0
- Wheat plant response rating (wheat; [5]): 0
- Plant response rating, Wheat (wheat; [7]): 0
- Wheat plant response rating (wheat; [8]): 0
- Wild oats plant response rating (wild oat; [2]): 0
- Wild oats plant response rating (0 to 10 scale) (wild oat; [10]): 0
- Wild oats plant response rating (wild oat; [4]): 3
- Wild oats plant response rating (wild oat; [5]): 6
- Plant response rating, Wild oats (wild oat; [7]): 0
- Wild oats plant response rating (wild oat; [8]): 0
- Nutsedge plant response rating (purple nutsedge; [1]): 0
- Nutsedge plant response rating (purple nutsedge; [2]): 0
- Nutsedge plant response rating (0 to 10 scale) (purple nutsedge; [3]): 0
- Nutsedge plant response rating (purple nutsedge; [4]): 0
- Nutsedge plant response rating (purple nutsedge; [5]): 0
- Nutsedge plant response rating (purple nutsedge; [6]): 0
- Plant response rating, Nutsedge (purple nutsedge; [7]): 0
- Nutsedge plant response rating (purple nutsedge; [8]): 0
- Redroot pigweed plant response rating (pigweed; [1]): 0
- Redroot pigweed plant response rating (pigweed; [2]): 0
- Redroot pigweed plant response rating (0 to 10 scale) (pigweed; [11]): 6
- Redroot pigweed plant response rating (pigweed; [4]): 8
- Redroot pigweed plant response rating (pigweed; [5]): 8
- Redroot pigweed plant response rating (pigweed; [6]): 0
- Plant response rating, Redroot pigweed (pigweed; [7]): 3
- Redroot pigweed plant response rating (pigweed; [8]): 7
- Velvetleaf plant response rating (velvetleaf; [2]): 0
- Velvetleaf plant response rating (0 to 10 scale) (velvetleaf; [10]): 0
- Velvetleaf plant response rating (velvetleaf; [4]): 0
- Velvetleaf plant response rating (velvetleaf; [5]): 3
- Plant response rating, Velvetleaf (velvetleaf; [7]): 0
- Velvetleaf plant response rating (velvetleaf; [8]): 2
- Rape plant response rating (rape; [1]): 0
- Rape plant response rating (rape; [2]): 0
- Rape plant response rating (0 to 10 scale) (rape; [3]): 0
- Rape plant response rating (rape; [4]): 0
- Rape plant response rating (rape; [5]): 5
- Rape plant response rating (rape; [6]): 0
- Plant response rating, Rape (rape; [7]): 0
- Rape plant response rating (rape; [8]): 0
